# How the values were obtained:
# [1] = test system: Male and female M. croceipes; set-up: species or system Microplitis croceipes; conditions: in vivo
# [2] = test system: M. croceipes; set-up: species or system Microplitis croceipes; conditions: in vivo
smiles,measurement,setting,value
CCCCCC(=O)CC [3-Octanone],Head-sticking behavior,[1],no head-sticking behavior
same,Average number of times a trained wasp entered the opening,[2],approximately 1.5
same,Average time spent in the opening,[2],15 s
same,Trained wasps displaying head-sticking behavior,[2],about 18 out of 20

# Source: patent US20030148529A1 (priority 2000, published 2003)
